According to patent publication US20230181564A1, “Potent Tetrahydroquinolone Eliminates Apicomplexan Parasites” (The University of Chicago, priority 2020, published 2023):

Key:
hERG = hERG (Homo sapiens, UniProt Q12809); experiment: hERG liability; assay type: in vitro ADME
Experimental: Structure Activity Relationship (SAR) and comparison of effect on T.gondii and HFF enzyme activity. […] The MDCK-MDR1 Permeability Assay was also performed. […] These were measured by Chem Partners.

[1] = system: Human Foreskin Fibroblast (HFF); experiment: Cytotoxicity assay with WST-1 on HFF; assay type: cell-based
Experimental: PBS Sol/Toxicity pH7.4 refers to solubility of the compound in Phosphate Buffered Saline (PBS) at pH7.4. […] Tachy/Brady IC50 was determined in studies in which cultures of parasites in HFF were treated with varying concentrations of the compound and there was 50% inhibition of the replication (number) of parasites. Parasites were RH-YFP expressing tachyzoites (Tachy) and EGS (Brady) strains. Studies of effects of inhibitors on HFF or on T.gondii tachyzoites were performed with triplicate wells in at least two biological replicate experiments. Studies of effects on bradyzoites were performed at least twice in at least two biological replicate experiments. Compounds with much less inhibition of mammalian than T. gondii cytochrome bc in the saffarine enzyme assay (indicated by **) provide potential to further develop compounds, if unanticipated toxicity occurs from JAG21.
Cytotoxicity Assays in parallel with RH Strain T.gondii in vitro studies. Toxicity assays used WST-1 cell proliferation reagent (Roche) as in Fomovska et al. (2012). HFF were grown on a flat, clear-bottomed, black 96-well plate. Confluent HFF were treated with inhibitory compounds at concentrations of 10 μM and 50 μM. Compounds were diluted in IMDM-C, and 20 μL were added to each designated well, with triplicates for each condition. A gradient with 2 fold-decreasing concentrations of DMSO from 10% to 0% in colorless, translucent IMDM-C was used as a control. The plate was incubated for 72 hours at 37° C. 10 μL WST-1 reagent (Roche) were added to each well. Cells were incubated for 30-60 minutes. Absorbance was read using a fluorimeter at 420 nm. A higher degree of color change (and absorbance) indicated mitochondrial activity and cell viability.
Because T. gondii grows inside cells, if a compound were toxic to host HFF then it would make the compound appear to be spuriously effective (Fomovska et al. 2012; Fomovska et al. 2012a), when in actuality only toxicity for the host cell would be measured. Cytotoxicity to HFF was therefore assessed for all compounds at 10 μM. Results of this experiment are in Table 1, toxicity column. A two-way ANOVA and subsequent pairwise comparison found none of the differences in absorbance, compared to the media-DMSO vehicle controls, to be statistically significant (p>0.05). Most of these compounds are not toxic at 10 μM (the limit of solubility) and that cytotoxicity to cells can be attributed to DMSO in the solution, not the compound.

Sequence of hERG (Q12809 whole entry): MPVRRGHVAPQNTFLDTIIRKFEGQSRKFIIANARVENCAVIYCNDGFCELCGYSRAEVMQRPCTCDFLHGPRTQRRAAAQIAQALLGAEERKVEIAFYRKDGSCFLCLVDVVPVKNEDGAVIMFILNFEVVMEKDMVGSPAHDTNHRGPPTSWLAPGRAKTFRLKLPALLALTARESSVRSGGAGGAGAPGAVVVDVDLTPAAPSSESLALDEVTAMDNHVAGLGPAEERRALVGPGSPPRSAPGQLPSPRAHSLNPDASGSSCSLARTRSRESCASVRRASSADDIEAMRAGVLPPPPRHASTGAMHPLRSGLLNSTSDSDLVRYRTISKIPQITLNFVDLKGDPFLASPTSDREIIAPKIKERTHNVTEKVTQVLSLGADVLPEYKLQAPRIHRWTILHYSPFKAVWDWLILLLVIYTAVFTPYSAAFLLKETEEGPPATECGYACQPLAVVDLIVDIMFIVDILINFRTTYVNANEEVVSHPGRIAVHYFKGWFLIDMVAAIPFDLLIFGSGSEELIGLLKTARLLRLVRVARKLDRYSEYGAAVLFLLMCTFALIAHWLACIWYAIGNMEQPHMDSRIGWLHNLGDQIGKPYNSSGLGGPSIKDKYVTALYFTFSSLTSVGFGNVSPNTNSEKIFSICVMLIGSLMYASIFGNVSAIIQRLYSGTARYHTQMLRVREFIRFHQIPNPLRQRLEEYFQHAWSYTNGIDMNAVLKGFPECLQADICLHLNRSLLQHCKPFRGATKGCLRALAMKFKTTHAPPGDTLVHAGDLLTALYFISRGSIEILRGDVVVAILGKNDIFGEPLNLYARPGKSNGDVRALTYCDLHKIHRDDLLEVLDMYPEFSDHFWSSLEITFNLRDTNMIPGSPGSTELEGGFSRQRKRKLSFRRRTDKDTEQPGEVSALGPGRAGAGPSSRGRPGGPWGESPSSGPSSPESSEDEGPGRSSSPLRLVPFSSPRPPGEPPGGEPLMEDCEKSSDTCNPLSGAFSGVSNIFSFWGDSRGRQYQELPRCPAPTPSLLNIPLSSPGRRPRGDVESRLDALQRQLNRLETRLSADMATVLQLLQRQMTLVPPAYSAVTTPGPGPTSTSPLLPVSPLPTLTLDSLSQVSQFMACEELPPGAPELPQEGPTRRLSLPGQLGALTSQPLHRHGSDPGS

Cc1[nH]c2c(c(=O)c1-c1ccc(Oc3ccc(OC(F)(F)F)cc3)cc1)CCCC2 [JAG021, 2-methyl-3-(4-(4-(trifluoromethoxy)phenoxy)phenyl)-5,6,7,8-tetrahydroquinolin-4-one]
hERG liability (hERG): no hERG liability | Toxicity to human cells in the in vitro model (HFF) [1]: not toxic
